Measurements: US20260199323A1, “LIGAND COMPOUNDS FOR E3 UBIQUITIN LIGASE, PROTEIN DEGRADERS DEVELOPED ON BASIS OF LIGAND COMPOUNDS, AND USES THEREOF” (GLUETACS THERAPEUTICS (SHANGHAI) CO., LTD., priority 2021, published 2026)
Read-outs that look alike come from different tables or passages of the source.

Tests used:
Format in all cases: cell-based, Human
CAL-62 = assay: CCK-8 tumor cell proliferation, CAL-62; settings: Table 19, IRAK4 inhibitor based, CAL-62, read-out: IC50 inhibiting proliferation of tumor cells, CAL-62
Summary of the method: (§1)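 Proliferation was measured by CCK-8. Plated cells received compound 24 h later at ten 5-fold dilutions beginning at 10 μM.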

SU-DHL-4 = assay: CCK-8 tumor cell proliferation, SU-DHL-4; settings: Table 19, IRAK4 inhibitor based, read-out: IC50 inhibiting proliferation of tumor cells, SU-DHL-4
Procedure: (§2) The tumor cells used herein were cultured in a cell culture medium listed in table 4 at 37° C. in an incubator with 5% CO2. Prior to experimentation, all cells used were correctly identified by STR profiling, and tested negative for mycoplasma through routine screenings.
(§3) IC50 values of the compounds of the present disclosure (including the compounds in Tables 1 and 3, and compounds of examples) were measured using the Meilun Cell Counting Kit-8 kit from Dalian Meilun Biotech Co., Ltd. Assay details are as follows: tumor cells were seeded in a 96-well plate at a density listed in Table 5. After 24 h, 100 μL of the inoculated cells were treated with 0.5 μL of the compounds of the present disclosure (including the compounds in Tables 1 and 3, and compounds of examples) at 10 different successively decreasing concentrations (starting at the highest concentration of 10 μM; 5-fold serial dilutions). After the cells were treated with the compounds of the present disclosure for a period of time, the cell viability detection reagent was added to the culture medium for cell viability assessment according to the instructions provided with the CCK-8 kit. […] The growth inhibition of the compounds of the present disclosure on cells was plotted by Prism Graphpad software, and the IC50 values of the compounds of the present disclosure were calculated therefrom.

LNcap = assay: CCK-8 tumor cell proliferation, LNcap; settings: Table 19, IRAK4 inhibitor based, Lncap, read-out: IC50 inhibiting proliferation of tumor cells, Lncap
Procedure: as §2, §3

CCRF-CEM = assay: CCK-8 tumor cell proliferation, CCRF-CEM; settings: Table 19, IRAK4 inhibitor based, CCRF-CEM, read-out: IC50 inhibiting proliferation of tumor cells, CCRF-CEM
Summary of the method: as §1

SW620 = assay: CCK-8 tumor cell proliferation, SW620; settings: Table 19, IRAK4 inhibitor based, SW620, read-out: IC50 inhibiting proliferation of tumor cells, SW620
Summary of the method: as §1

Jurkat = assay: CCK-8 tumor cell proliferation, Jurkat; settings: Table 19, IRAK4 inhibitor based, read-out: IC50 inhibiting proliferation of tumor cells, Jurkat
Summary of the method: as §1

Row | SMILES | IC50 (CAL-62; Homo sapiens) | IC50 (SU-DHL-4; Homo sapiens) | IC50 (LNcap; Homo sapiens) | IC50 (CCRF-CEM; Homo sapiens) | IC50 (SW620; Homo sapiens, SW-620) | IC50 (Jurkat; Homo sapiens) | IC50 (CAL-62) | IC50 (SU-DHL-4) | IC50 (LNcap) | IC50 (CCRF-CEM) | IC50 (SW620) | IC50 (Jurkat)
1 | O=C1CCC(N2Cc3c(ccc(CN4CCC(n5cc(NC(=O)c6coc(-c7ccnc(NCC(F)(F)F)c7)n6)c(C(F)F)n5)CC4)c3F)C2=O)C(=O)N1 (stereo not drawn) [GT-04098, N-(3-(difluoromethyl)-1-(1-((2-(2,6-dioxopiperidin-3-yl)-4-fluoro-1-oxoisoindolin-5-yl)methyl)piperidin-4-yl)-1H-pyrazol-4-yl)-2-(2-((2,2,2-trifluoroethyl)amino)pyridin-4-yl)oxazole-4-carboxamide] | < 50 nM | < 50 nM | < 50 nM | < 50 nM | < 50 nM | < 50 nM | – | – | – | – | – | –
2 | CC(C)Nc1cc(-n2ccc3cc(C#N)cnc32)ncc1C(=O)N[C@H]1CC[C@H](C(=O)NCc2ccc3c(c2)CN(C2CCC(=O)NC2=O)C3=O)CC1 (stereo partly drawn) [GT-04077, 6-(5-cyano-1H-pyrrolo[2,3-b]pyridin-1-yl)-N-((1r,4r)-4-(((2-(2,6-dioxopiperidin-3-yl)-1-oxoisoindolin-5-yl)methyl)carbamoyl)cyclohexyl)-4-(isopropylamino)nicotinamide] | – | – | – | – | – | – | < 50 nM | 500 to 1000 nM | 100 to 500 nM | < 50 nM | 100 to 500 nM | < 50 nM
3 | O=C1CCC(N2Cc3cc(CN4CCC(n5cc(NC(=O)c6coc(-c7ccnc(NCC(F)(F)F)c7)n6)c(C(F)F)n5)CC4)cc(F)c3C2=O)C(=O)N1 (stereo not drawn) [GT-04099, N-(3-(difluoromethyl)-1-(1-((2-(2,6-dioxopiperidin-3-yl)-7-fluoro-1-oxoisoindolin-5-yl)methyl)piperidin-4-yl)-1H-pyrazol-4-yl)-2-(2-((2,2,2-trifluoroethyl)amino)pyridin-4-yl)oxazole-4-carboxamide] | < 50 nM | 100 to 500 nM | < 50 nM | < 50 nM | < 50 nM | < 50 nM | – | – | – | – | – | –
4 | O=C1CCC(N2Cc3c(ccc(CN4CCC(n5cc(NC(=O)c6coc(-c7ccnc(NCC8CC8)c7)n6)c(C(F)F)n5)CC4)c3F)C2=O)C(=O)N1 (stereo not drawn) [GT-04154, 2-(2-((cyclopropylmethyl)amino)pyridin-4-yl)-N-(3-(difluoromethyl)-1-(1-((2-(2,6-dioxopiperidin-3-yl)-4-fluoro-1-oxoisoindolin-5-yl)methyl)piperidin-4-yl)-1H-pyrazol-4-yl)oxazole-4-carboxamide] | < 50 nM | < 50 nM | < 50 nM | < 50 nM | < 50 nM | < 50 nM | – | – | – | – | – | –
5 | O=C1CCC(N2Cc3cc(CN4CCC(n5cc(NC(=O)c6coc(-c7ccnc(NCC8CC8)c7)n6)c(C(F)F)n5)CC4)c(F)cc3C2=O)C(=O)N1 (stereo not drawn) [GT-04171, 2-(2-((cyclopropylmethyl)amino)pyridin-4-yl)-N-(3-(difluoromethyl)-1-(1-((2-(2,6-dioxopiperidin-3-yl)-6-fluoro-1-oxoisoindolin-5-yl)methyl)piperidin-4-yl)-1H-pyrazol-4-yl)oxazole-4-carboxamide] | < 50 nM | < 50 nM | < 50 nM | < 50 nM | < 50 nM | < 50 nM | – | – | – | – | – | –
6 | O=C1CCC(N2Cc3cc(CN4CCC(n5cc(NC(=O)c6coc(-c7ccnc(NCC8CC8)c7)n6)c(C(F)F)n5)CC4)ccc3C2=O)C(=O)N1 (stereo not drawn) [GT-04153, 2-(2-((cyclopropylmethyl)amino)pyridin-4-yl)-N-(3-(difluoromethyl)-1-(1-((2-(2,6-dioxopiperidin-3-yl)-1-oxoisoindolin-5-yl)methyl)piperidin-4-yl)-1H-pyrazol-4-yl)oxazole-4-carboxamide] | < 50 nM | < 50 nM | < 50 nM | < 50 nM | < 50 nM | < 50 nM | – | – | – | – | – | –
